Structures are written as SMILES. Where only a bound is given, the exact number is not on record here.

Compound `CS(=O)(=O)c1ccc(OC(Cc2ccc(OCCNC(=O)c3ccc(-c4ccccn4)cc3)cc2)C(=O)O)cc1` (configuration not stated) came in with a melting point of 231 to 233 °C. As for `O=c1ccn(-c2ccccc2C(F)(F)F)nc1-c1ccnn1-c1ccccc1`, the figure is 145 to 146 °C; as for `Cc1cc(-c2nc3ccc(CCN4CCOCC4)cc3c(=O)[nH]2)cc(C)n1`, 248 to 249 °C; as for `Cc1nccn1C(c1ccccc1)(c1ccccc1)c1ccccc1Cl`, 177 °C. Consider `Cc1ccc2[nH]c(=O)c(C(=O)NC3CCCCC3)c(O)c2c1`, for which the melting point was 269 °C. Take `Cn1cc2c(nc(NC(=O)Nc3ccc(CC(=O)NCCCNC(=O)OC(C)(C)C)cc3)n3nc(-c4ccco4)nc23)n1`: the melting point was in the range of 198 to 205 °C. As for `CN(Cc1ccc(=O)n(Cc2ccc(Cl)cc2)c1)c1ccccc1`, the melting point was found to be 106 °C. As for `O=CNNc1ccc([N+](=O)[O-])cc1`, the figure is 183 to 185 °C.

Take `O=C(CNC(=S)c1cccnc1)NC1CC1`: the melting point was in the range of 152 to 153 °C. In turn, `CC(C)CCNC(=O)C(c1ccccc1)c1ccccc1` showed a melting point of 128 °C. The value for `O=c1ccc(S(=O)(=O)c2oc3ccc(Cl)cc3c2-c2ccccc2)n[nH]1` was > 240 °C; that for `COc1ccc(SCc2ccc(-c3csnn3)cc2)cc1` was 117 to 119 °C.

As to `CC1(C)Oc2ccc(C#N)cc2[C@@H](NC2=C(CO)C(=O)CC2)[C@@H]1O` (relative stereo), the melting point fell in the range of 218 to 220 °C. In turn, `COCc1cccc(C=CC(O)c2ccccc2)c1NC(=O)CC1c2ccccc2Oc2ccccc21` (configuration not stated) displayed a melting point of 204 to 206 °C. Compound `CCOCCCc1ccc(Oc2ccc3c(c2)C=C(C(=O)Nc2ccc(CN(C)C4CCOCC4)cc2)CCS3(=O)=O)cc1` gave a melting point of 156 to 157 °C. As for `Cc1cc(C)c(-c2n[nH]c(=O)c3ccccc23)c(C)c1`, the figure is 259 to 262 °C. Take `CON(C)C(=O)Nc1ccc(OCCc2cccc(C)n2)cc1`: the melting point fell in the range of 96 to 97 °C. The value for `CN1CCC2(CC1)C(=O)N(C)c1ccc(Cl)cc1C(c1ccccc1)N2C` (configuration not stated) was 80 to 85 °C.

The compound `Nc1c(-c2ccc(-c3ccc(F)cc3)cc2)nc2ccc(Cl)cc2c1C(=O)O` came in with a melting point of 255 to 257 °C. As for `Cc1oc(-c2ccco2)nc1COc1ccc(C=O)cc1Br`, the figure is 146 to 147 °C; as for `CCCCC(CC)C(=O)NCCCCn1cnc2c(N)nc3ccccc3c21` (configuration not stated), 163 to 164 °C.

Compound `CCCCS(=O)(=O)Nc1ccc(OCc2ccc3ccccc3n2)c(C#N)c1` displayed a melting point of 158 to 160 °C. `Cc1c(NC(=O)CC(C)(C)C)cc2c(c1C)OC(C)(C)C2CCc1ccccc1` (configuration not stated) displayed a melting point of 158 to 159 °C. The value for `COc1cc(N)c(Cl)cc1C(=O)NCC1CCN(CCCCCOc2ccccc2)CC1` was 129 to 132 °C; that for `Cc1ccccc1NC(=O)CN1CC2CCC(C1)N2S(=O)(=O)c1ccccc1` was 169 to 170 °C. As for `CCOc1ccc(-c2nnc(C#N)o2)cc1`, the figure is 110 °C; as for `O=C1N(Cc2cc(F)ccn2)c2ccccc2C12COc1cc3c(cc12)OCCO3` (configuration not stated), 228 to 231 °C; as for `COC(=O)NCCOC(=O)COc1cc(Oc2ccc(C(F)(F)F)cc2Cl)ccc1[N+](=O)[O-]`, 105 to 108 °C. As for `CS(=O)(=O)c1ccc(C(=O)c2ccc(F)cc2)cc1`, the figure is 136 °C. Consider `Cc1ccc(-c2ccc(S(C)(=O)=O)cc2)n1-c1ccc(-c2ccco2)c(Cl)c1`, for which the melting point is 127 to 131 °C.

As to `COc1cc(CNC(=O)c2ccc3n2Cc2ccccc2N(C(=O)COc2ccc(Cl)cc2C)C3)ccc1O`, the melting point was in the range of 167 to 168 °C. Regarding `C=CCNc1c(CO)cnc2cn[nH]c12`, the melting point is 190 to 192 °C. Consider `OCn1cc(-c2cc3nccnc3[nH]2)c2ccccc21`, for which the melting point was > 320 °C. As for `CS(=O)(=O)c1ccc(-c2cnn(-c3cccc(Cl)c3)c(=O)c2Cc2cccc(F)c2)cc1`, the figure is 142 to 143 °C; as for `COC(=O)c1ccc(C[C@H](NC(=O)OCc2ccccc2)C(=O)O)cc1`, 102 to 106 °C. As for `CCC(=O)c1cn(-c2c(Cl)cc(C(F)(F)F)cc2Cl)nc1C#N`, the melting point worked out at 143 °C. For the compound `C=CCc1cnc2c([N+](=O)[O-])cccc2c1Cl`, the melting point is 64 to 66 °C. Turning to `COc1cc(/C=C/CO)cc(OC)c1OCc1ccccc1`, the melting point is 72 to 73 °C.

In turn, `Cn1c(C(=O)O)c(Br)c2cc(OCc3ccccc3)ccc21` displayed a melting point of 210 °C. Compound `N#CNc1nnc(-c2ccc3occ(-c4cccc(OC(F)(F)F)c4)c3c2)o1` yielded a melting point of 237 to 238 °C. The value for `CC(C)NC(=O)c1ccc(N2CCC(N3C(=O)OCc4ccccc43)CC2)c(C#N)c1` was 200 °C. As for `CN(C1CCCCC1)S(=O)(=O)c1ccc(Cn2cnc3ccccc32)cc1`, the figure is 191 to 193 °C; as for `ClCCCOc1ccc(OCCCCl)c(Cl)c1`, 135 °C; as for `CCOP(=O)(OCC)c1nc(Nc2ccccc2)nc(N2CCCC2)n1`, 150 to 151 °C. `COC(=O)Cc1cn(-c2ccccc2)nc1OCc1ccc(OCc2nc(-c3ccccc3)oc2C)nc1` gave a melting point of 96 to 97 °C.

`Cc1cc(C2=NNC(=O)CC2)ccc1CCCCN` gave a melting point of 145 to 147 °C.

Regarding `O=C(O)c1ccc2c(c1)nc(-c1ccc(Oc3cccc(OCc4ccncc4)c3)cc1)n2C1CCCCC1`, the melting point is 235 to 237 °C.

The compound `CC(C)c1[nH]nc(C(N)=O)c1N` had a melting point of 178 to 179 °C.

As for `CS(=O)(=O)c1ccc(C2=C(c3ccc(F)cc3)CC(C(F)(F)F)(C(F)(F)F)C2)cc1`, the melting point amounted to 138 °C. In turn, `CS(=O)(=O)c1ccc(-c2cnn(-c3ccoc3)c(=O)c2-c2ccc(F)cc2)cc1` gave a melting point of 239 to 242 °C. The value for `CS(=O)(=O)c1ccc(C(=O)CC(=O)C2CC2)c(Cl)c1-c1nccs1` was 146 to 147 °C. The value for `Cc1cn(CCC(=O)N(C)C)nc1-c1ccccc1` was 60 to 63 °C; that for `COc1ccc(-n2c(=O)c3c(Cc4ccccc4)n[nH]c3c3cccnc32)cc1` was > 320 °C; that for `O=C(O)COc1cc(NS(=O)(=O)c2cccs2)c2ccccc2c1O` was 155 to 157 °C.

Compound `CCOC(=O)c1ccc(-c2cnc3c(c2)N(Cc2cc(F)ccc2F)C(=O)CN3)cc1` returned a melting point of 201 to 203 °C. `NCCc1ccc(OCCC(=O)O)cc1` came in with a melting point of 216 °C. Consider `COC(=O)N(CC(=O)O)C(=O)c1c(Cl)ccc2c(C(F)(F)F)c(OC)ccc12`, for which the melting point was 162 to 165 °C. In the case of `COc1cc(Nc2nc3cccc(-c4ccc(C)c(N)c4)c3o2)cc(OC)c1OC`, the melting point was 188 to 190 °C. The value for `COc1ccc(S(=O)(=O)N2CCCC2)cc1` was 88 to 89 °C; that for `CNC(=S)Nc1ccccc1-c1nc(C)c(-c2cccnc2)[nH]1` was 192 to 193 °C; that for `CC(=O)c1cccc2cc3ccccc3cc12` was 106 °C. `Cc1cnc(-c2cc(-c3ccc(Cl)cc3)c(N3CCOCC3)s2)cc1OCC(F)(F)F` registered a melting point of 177 to 178 °C.

Values taken from a melting point compilation (Tetko et al.; mined from patent text by program, amines drawn as free bases though some values may be those of a salt).
